Measured values from patent US6943268B2 (priority 1999, dated 2005).

Test system: L-selectin on neutrophils
Format: cell-based, human
Settings: not given

Row | Compound | approximate concentration for 100% LOSS of L-selectin from cell surface | effective concentrations for induction of L-selectin shedding | induction of L-selectin shedding (in words) | cell surface L-selectin released
1 | [O-2].[O-2].[O-2].[Sb+3].[Sb+3] [Antimony (Sb203)] | ~50 µM | – | – | –
2 | O=[As]O[As]=O (stereo not drawn) [Arsenic (As203)] | ~50 µM | – | – | –
3 | NC(=O)N=NC(N)=O [Azodicarbonamide] | ~1 mM- | – | – | –
4 | [Cl][Cd][Cl] [Cadmium (CdC12)] | ~1000 µM | – | – | –
5 | CN(C)CCCN1c2ccccc2Sc2ccc(Cl)cc21 [Chlorpromazine] | ~50 mM- | 10 to 50 µM | – | –
6 | Clc1ccc(C(c2ccc(Cl)cc2)C(Cl)(Cl)Cl)cc1 [DDT] | ~50 uM- | – | – | –
7 | O=S(=O)(O)c1cc(N=C=S)ccc1C=Cc1ccc(N=C=S)cc1S(=O)(=O)O [DIDS] | ~200 uM- | – | – | –
8 | O=C(O)c1cc(SSc2ccc([N+](=O)[O-])c(C(=O)O)c2)ccc1[N+](=O)[O-] [DTNB, 5′,5′-dithio-bis(2-nitrobenzoic acid)] | ~1 mM- | – | – | –
9 | CN(C)C(=O)/N=N/C(=O)N(C)C [Diamide] | ~1 mM- | – | – | –
10 | Cc1c(CBr)n2c(CBr)c(C)c(=O)n2c1=O [Dibromobimane bBBr, Dibromobimane] | ~100 um- | – | – | –
11 | C1COCCO1 [Dioxane] | – | – | itself induces L-selectin release | –
12 | CCN(CC)C(=S)SSC(=S)N(CC)CC [Disulfiram (Antabuse), Disulfiram] | ~50 uM- | – | – | –
13 | OO [Hydrogen peroxide] | ~150 uM- | – | – | –
14 | NC(=O)CI [Iodoacetamide] | ~10 mM- | – | – | –
15 | O=C(O)CI [Iodoacetate IA, Iodoacetate] | ~300 uM- | – | – | –
16 | O=Ic1ccccc1C(=O)O [Iodosobenzoate] | ~1 mM- | – | – | –
17 | COc1ccc(C(c2ccc(OC)cc2)C(Cl)(Cl)Cl)cc1 [Methoxychlor] | ~50 uM- | – | – | –
18 | Cc1c(C)n2c(CBr)c(C)c(=O)n2c1=O [Monobromobimane mBBr, Monobromobimane] | ~100 uM- | – | – | –
19 | CCN1C(=O)C=CC1=O [N-ethylmaleimide] | ~250 uM- | – | – | –
20 | COc1cc(-c2ccc(-n3nc(-c4ccccc4)n[n+]3-c3ccc([N+](=O)[O-])cc3)c(OC)c2)ccc1-n1nc(-c2ccccc2)n[n+]1-c1ccc([N+](=O)[O-])cc1 [Nitroblue tetrazolium] | ~100 uM- | – | – | –
21 | O=S(=O)(F)Cc1ccccc1 [PMSF] | ~1 mM- | – | – | –
22 | CSCC[C@H](NC=O)C(=O)N[C@@H](CC(C)C)C(=O)N[C@@H](Cc1ccccc1)C(=O)O [fMLP, formyl-methionyl-leucyl-phenylalanine] | – | – | – | at least 90%
23 | Protein Disulfide Isomerase | ~20 ug/ml- | – | – | –
24 | Thimerosal | ~500 um- | – | – | –
25 | Thioredoxin | ~50 ug/ml- | – | – | –

Test system: HIV
Settings: chlorpromazine: at the concentration of Table I; cited from earlier work

Row | Compound | HIV infectivity
26 | NC(=O)N=NC(N)=O [Azodicarbonamide] | blocks HIV infectivity,

Test system: Mac-1 (CD18/CD11b) on neutrophils
Format: cell-based, human
Settings: not given

Row | Compound | increase of cell surface Mac-1 expression compared to the ice control
27 | CSCC[C@H](NC=O)C(=O)N[C@@H](CC(C)C)C(=O)N[C@@H](Cc1ccccc1)C(=O)O [fMLP, formyl-methionyl-leucyl-phenylalanine] | 3-10 fold

Test system: L-selectin on lymphocytes
Format: cell-based, human
Settings: not given

Row | Compound | time for lymphocytes to shed L-selectin | response of lymphocytes (L-selectin shedding)
28 | CCCCCCCCCCCCCC(=O)O[C@@H]1[C@@H](C)[C@@]2(O)[C@@H](C=C(CO)C[C@]3(O)C(=O)C(C)=C[C@@H]23)[C@@H]2C(C)(C)[C@]12OC(C)=O [PMA] | ~30 min | –
29 | CSCC[C@H](NC=O)C(=O)N[C@@H](CC(C)C)C(=O)N[C@@H](Cc1ccccc1)C(=O)O [fMLP, formyl-methionyl-leucyl-phenylalanine] | – | do not respond
